From patent US10669272B2, “Substituted naphthyridinone compounds useful as T cell activators” (BRISTOL-MYERS SQUIBB COMPANY, priority 2018, dated 2020)
Read-outs that look alike come from different tables or passages of the source.

How the values were obtained:
[1] = molecular target: T1, human DGKα (Homo sapiens, UniProt P23743); assay: DGKα LIPGLO assay (extruded liposome substrate), in vitro DGK inhibition; format: biochemical
T1 construct: TVMV protease cleavage site (C); Hexa-His (C); made in house; host or cells: Sf9 insect cells (baculovirus, Bac-to-Bac)
T1 sequence (P23743 with tags, fused parts or gaps): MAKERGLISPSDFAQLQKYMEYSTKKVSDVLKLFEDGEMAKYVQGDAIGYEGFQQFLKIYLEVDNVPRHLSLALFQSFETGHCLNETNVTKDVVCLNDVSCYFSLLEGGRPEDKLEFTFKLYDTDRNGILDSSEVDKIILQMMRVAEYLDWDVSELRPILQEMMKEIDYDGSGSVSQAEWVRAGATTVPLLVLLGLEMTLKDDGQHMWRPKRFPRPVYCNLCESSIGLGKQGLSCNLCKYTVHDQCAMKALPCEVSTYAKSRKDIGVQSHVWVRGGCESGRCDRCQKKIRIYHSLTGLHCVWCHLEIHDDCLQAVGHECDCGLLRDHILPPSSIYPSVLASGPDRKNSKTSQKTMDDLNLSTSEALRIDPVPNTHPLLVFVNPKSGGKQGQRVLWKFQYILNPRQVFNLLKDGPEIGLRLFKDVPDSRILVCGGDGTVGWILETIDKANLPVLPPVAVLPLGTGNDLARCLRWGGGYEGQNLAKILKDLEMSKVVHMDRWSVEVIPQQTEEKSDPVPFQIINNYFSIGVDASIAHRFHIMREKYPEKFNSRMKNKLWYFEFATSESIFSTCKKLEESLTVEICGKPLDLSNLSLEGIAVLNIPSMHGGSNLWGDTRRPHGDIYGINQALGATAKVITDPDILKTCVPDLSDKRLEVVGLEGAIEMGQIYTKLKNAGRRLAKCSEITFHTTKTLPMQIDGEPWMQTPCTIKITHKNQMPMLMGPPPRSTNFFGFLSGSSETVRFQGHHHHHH

[2] = molecular target: T2, human DGKζ (Homo sapiens, UniProt Q13574); assay: DGKζ LIPGLO assay (extruded liposome substrate), in vitro DGK inhibition; format: biochemical; settings: read-out: DGKz LIPGLO IC50
T2 construct: TVMV protease cleavage site (C); Hexa-His (C); made in house; host or cells: Sf9 insect cells (baculovirus, Bac-to-Bac)
T2 sequence (Q13574 with tags, fused parts or gaps isoform Q13574-4): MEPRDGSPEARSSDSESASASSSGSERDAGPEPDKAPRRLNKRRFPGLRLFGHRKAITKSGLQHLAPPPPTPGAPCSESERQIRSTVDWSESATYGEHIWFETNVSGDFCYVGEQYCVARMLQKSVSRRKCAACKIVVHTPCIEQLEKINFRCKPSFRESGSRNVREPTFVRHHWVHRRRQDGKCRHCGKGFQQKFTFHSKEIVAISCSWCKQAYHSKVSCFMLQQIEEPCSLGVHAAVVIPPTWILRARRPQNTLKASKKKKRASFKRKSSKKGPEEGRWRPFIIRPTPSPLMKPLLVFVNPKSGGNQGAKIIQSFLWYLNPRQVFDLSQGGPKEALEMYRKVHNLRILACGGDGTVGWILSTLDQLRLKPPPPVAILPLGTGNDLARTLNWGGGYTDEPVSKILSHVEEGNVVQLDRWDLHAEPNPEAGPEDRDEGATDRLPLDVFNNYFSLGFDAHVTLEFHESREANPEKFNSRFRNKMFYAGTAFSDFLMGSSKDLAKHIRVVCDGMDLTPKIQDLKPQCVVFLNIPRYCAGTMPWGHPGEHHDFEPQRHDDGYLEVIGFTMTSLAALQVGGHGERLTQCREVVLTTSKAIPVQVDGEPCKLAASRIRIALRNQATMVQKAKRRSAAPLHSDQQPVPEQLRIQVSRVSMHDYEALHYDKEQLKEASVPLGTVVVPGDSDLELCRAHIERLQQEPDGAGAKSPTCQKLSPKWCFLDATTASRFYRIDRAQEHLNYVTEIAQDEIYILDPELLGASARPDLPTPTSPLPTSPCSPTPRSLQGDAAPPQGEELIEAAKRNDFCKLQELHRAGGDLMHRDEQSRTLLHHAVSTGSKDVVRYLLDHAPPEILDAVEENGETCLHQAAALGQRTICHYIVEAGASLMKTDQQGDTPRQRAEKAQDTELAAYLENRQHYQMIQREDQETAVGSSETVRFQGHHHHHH

[3] = test system: Human venous whole blood; assay: Human whole blood IFN-γ assay; format: cell-based; settings: human whole blood, read-out: INFg Whole Blood Normalized Agonist EC50;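 also: blood from healthy donors exposed to compound for 1 h before stimulation with anti-CD3 and anti-CD28 at 1 µg/mL each, IFN-γ quantified in supernatant by AlphaLISA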
Protocol: Human Whole Blood IFN-γ Assay
Human venous whole blood (22.5 μL per well), obtained from healthy donors, was pre-treated with compounds for one hour at 37° C. in a humidified 95% air/5% CO2 incubator. The blood was stimulated with 2.5 μL anti-human CD3 and anti-CD28 mAb at a final concentration of 1 μg/mL each for 24 hours at 37° C. IFN-γ in the supernatants was measured using AlphLISA kit (Cat # AL217).

[4] = liposome (LIPGLO) assay, read-out: DGKa LIPGLO IC50
[5] = normalized to 3 μM reference compound with anti-CD3 plus anti-CD28 as 100% activation
[6] = Homo sapiens, 24 h, normalized to 3 μM reference compound with anti-CD3 plus anti-CD28 as 100% activation
[7] = DGKα liposome (LIPGLO) assay, read-out: DGKa LIPGLO IC50
[8] = anti-CD3 plus anti-CD28, 24 hours, 3 μM reference compound = 100% activation
[9] = Homo sapiens, 24 h, anti-CD3 plus anti-CD28, 24 hours, 3 μM reference compound = 100% activation

CC(c1ccc(F)c(Cl)c1)N1C[C@H](C)N(c2cc(=O)n(C)c3ccc(C#N)nc23)C[C@H]1C (single isomer, unassigned) [Example 1257]
IC50 [1, 4]: 7.9 µM
IC50 ([2]; liposome (LIPGLO) assay): 1.1 µM
EC50 [3, 5]: 1.7 µM

COC[C@@H]1CN(c2cc(=O)n(C)c3ccc(C#N)nc23)[C@@H](C)CN1C(c1ccc(F)cc1)c1ccc(C#N)cc1 (single isomer, unassigned) [Example 1158]
IC50 [1, 4]: 6.5 µM
IC50 ([2]; liposome (LIPGLO) assay): 1.3 µM
EC50 [3, 5]: 0.35 µM

CCC(c1ccc(OC(C)C)cc1)N1C[C@H](C)N(c2cc(=O)n(C)c3ccc(C#N)nc23)C[C@H]1C (single isomer, unassigned) [Example 1449]
IC50 [1, 4]: 0.61 µM
IC50 ([2]; liposome (LIPGLO) assay): 0.35 µM
EC50 [3, 5]: 0.87 µM

CC[C@H]1CN(C(C)c2ccc(C3CC3)cc2)[C@H](CC)CN1c1cc(=O)n(C)c2ccc(C#N)nc12 (single isomer, unassigned) [Example 1356]
IC50 [1, 4]: 1.9 µM
IC50 ([2]; liposome (LIPGLO) assay): 3.4 µM
EC50 [3, 5]: 1.3 µM

CC(c1ccc(OC(F)(F)F)cc1)N1C[C@H](C)N(c2cc(=O)n(C)c3ccc(C#N)nc23)C[C@H]1CO (single isomer, unassigned) [Example 1386]
IC50 [1, 4]: 0.14 µM
IC50 ([2]; liposome (LIPGLO) assay): 2.2 µM
EC50 [3, 5]: 3.9 µM

CC(c1ccc(C2(C#N)CC2)cc1F)N1C[C@H](C)N(c2cc(=O)n(C)c3ccc(C#N)nc23)C[C@H]1C (single isomer, unassigned) [Example 1251]
IC50 [1, 4]: 1.6 µM
IC50 ([2]; liposome (LIPGLO) assay): 0.25 µM
EC50 [3, 6]: 3.9 µM

CC[C@H]1CN(C(c2ccc(F)cc2)c2ccc(C#N)cc2)[C@H](COC)CN1c1cc(=O)n(C)c2ccc(C#N)nc12 (single isomer, unassigned) [Example 1171]
IC50 [1, 4]: 1.5 µM
IC50 ([2]; liposome (LIPGLO) assay): 0.35 µM
EC50 [3, 5]: 0.17 µM

CC(c1ccc(C2(C#N)CC2)cc1)N1C[C@H](C)N(c2cc(=O)n(C)c3ccc(C#N)nc23)C[C@H]1C (stereo partly drawn) [Example 1253]
IC50 [1, 4]: 1.9 µM
IC50 ([2]; liposome (LIPGLO) assay): 0.34 µM
EC50 [3, 6]: 1.8 µM

C[C@@H]1CN(c2cc(=O)n(C)c3ccc(C#N)nc23)[C@@H](C)CN1C(c1ccc(OC(F)(F)F)cc1)c1nc(C2CC2)no1 (single isomer, unassigned) [Example 759]
IC50 [1, 7]: 0.085 µM
IC50 ([2]; DGKζ liposome (LIPGLO) assay): 0.29 µM
EC50 [3, 8]: 0.27 µM

CC[C@H]1CN(C(C)c2ccc(OC(F)(F)F)cc2)[C@H](CC)CN1c1cc(=O)n(C)c2ccc(C#N)nc12 (single isomer, unassigned) [Example 1053]
IC50 [1, 4]: 0.021 µM
IC50 ([2]; liposome (LIPGLO) assay): 0.14 µM
EC50 [3, 5]: 0.21 µM

COC(=O)NC[C@@H]1CN(c2cc(=O)n(C)c3ccc(C#N)nc23)[C@@H](C)CN1C(c1ccc(F)cc1)c1ccc(F)cc1 [Example 1166, methyl (((2R,5S)-1-(bis(4-fluorophenyl)methyl)-4-(6-cyano-1-methyl-2-oxo-1,2-dihydro-1,5-naphthyridin-4-yl)-5-methylpiperazin-2-yl)methyl)carbamate]
IC50 [1, 4]: 1.8 µM
IC50 ([2]; liposome (LIPGLO) assay): 0.37 µM
EC50 [3, 6]: 0.35 µM

C[C@@H]1CN(c2c(C#N)c(=O)n(C)c3ccc(C#N)nc23)CCN1C(c1ccc(F)cc1)c1nccs1 (single isomer, unassigned) [Example 1025]
IC50 [1, 4]: 1.2 µM
IC50 ([2]; liposome (LIPGLO) assay): 19 µM
EC50 [3, 5]: 2 µM

C[C@@H]1CN(c2cc(=O)n(C)c3ccc(C#N)nc23)[C@@H](C)CN1Cc1ccc(OC(F)(F)F)cc1 [Example 609]
IC50 [1, 4]: 0.021 µM
IC50 ([2]; liposome (LIPGLO) assay): 13 µM
EC50 [3, 6]: 2.2 µM

Cc1cccc(C(c2ccc(F)cc2)N2C[C@H](C)N(c3c(C#N)c(=O)n(C)c4ccc(C#N)nc34)C[C@H]2C)n1 (stereo partly drawn) [Example 815]
IC50 [1, 7]: 7.7 µM
IC50 ([2]; DGKζ liposome (LIPGLO) assay): 4.1 µM
EC50 [3, 9]: 1.9 µM

CC(c1ccc(C2CC2)cc1)N1C[C@H](C)N(c2cc(=O)n(C)c3ccc(C#N)nc23)C[C@H]1C (single isomer, unassigned) [Example 1215]
IC50 [1, 4]: 0.72 µM
IC50 ([2]; liposome (LIPGLO) assay): 0.68 µM
EC50 [3, 5]: 7.2 µM

CC(c1ccc(OC(F)(F)F)cc1)N1C[C@H](C)N(c2cc(=O)n(C)c3ccc(C#N)nc23)C[C@H]1CN1CCN(C)CC1 (stereo partly drawn) [Example 1417]
IC50 [1, 4]: 26 µM
IC50 ([2]; liposome (LIPGLO) assay): 65 µM
EC50 [3, 6]: 11 µM

C[C@@H]1CN(c2c(C#N)c(=O)n(C)c3ccc(C#N)nc23)CCN1C(c1ccc(F)cc1)c1ccccc1F (stereo partly drawn) [Example 882]
IC50 [1, 7]: 0.82 µM
IC50 ([2]; DGKζ liposome (LIPGLO) assay): 0.96 µM
EC50 [3, 8]: 1.7 µM

Cc1cc(C(C)N2C[C@H](C)N(c3c(C#N)c(=O)n(C)c4ccc(C#N)nc34)C[C@H]2C)no1 (single isomer, unassigned) [Example 804]
IC50 [1, 7]: 6.9 µM
IC50 ([2]; DGKζ liposome (LIPGLO) assay): 32 µM
EC50 [3, 8]: 20 µM

C[C@@H]1CN(c2c(C#N)c(=O)n(C)c3ccc(C#N)nc23)CCN1C(c1ccc(F)cc1)c1nc(C2CC2)no1 (single isomer, unassigned) [Example 1029]
IC50 [1, 4]: 0.45 µM
IC50 ([2]; liposome (LIPGLO) assay): 2.1 µM
EC50 [3, 5]: 3.6 µM

CCC(c1ccc(C2CC2)cc1)N1C[C@H](C)N(c2cc(=O)n(C)c3ccc(C#N)nc23)C[C@H]1C (single isomer, unassigned) [Example 1220]
IC50 [1, 4]: 0.11 µM
IC50 ([2]; liposome (LIPGLO) assay): 0.095 µM
EC50 [3, 5]: 0.12 µM

CCC(c1ccc(OC(F)(F)F)cc1F)N1C[C@H](CC)N(c2cc(=O)n(C)c3ccc(C#N)nc23)C[C@H]1C (single isomer, unassigned) [Example 1378]
IC50 [1, 4]: 1.4 µM
IC50 ([2]; liposome (LIPGLO) assay): 2.8 µM
EC50 [3, 5]: 9.5 µM

C[C@@H]1CN(c2c(C#N)c(=O)n(C)c3ccc(C#N)nc23)[C@@H](C)CN1C(c1ccc(F)cc1)c1cnn(C)c1 (stereo partly drawn) [Example 846]
IC50 [1, 7]: 12 µM
IC50 ([2]; DGKζ liposome (LIPGLO) assay): 8.6 µM
EC50 [3, 9]: 5.1 µM

C[C@@H]1CN(c2cc(=O)n(C)c3ccc(C#N)nc23)[C@@H](C)CN1C(c1c(F)cc(O)cc1F)C(F)(F)F (single isomer, unassigned) [Example 627]
IC50 [1, 4]: 5.4 µM
IC50 ([2]; liposome (LIPGLO) assay): 5.9 µM
EC50 [3, 6]: 5.1 µM

C[C@@H]1CN(c2cc(=O)n(C)c3ccc(C#N)nc23)[C@@H](C)CN1C(c1ccc(F)cc1)c1ncco1 (stereo partly drawn) [Example 717]
IC50 [1, 4]: 0.22 µM
IC50 ([2]; liposome (LIPGLO) assay): 8.1 µM
EC50 [3, 6]: 1.6 µM

CC[C@@H]1CN(c2cc(=O)n(C)c3ccc(C#N)nc23)[C@@H](C)CN1Cc1ccc(F)cc1Cl [Example 1078]
IC50 [1, 4]: 2.7 µM
IC50 ([2]; liposome (LIPGLO) assay): 0.11 µM
EC50 [3, 6]: 0.97 µM

CCc1noc(C(c2ccc(F)cc2)N2C[C@H](C)N(c3cc(=O)n(C)c4ccc(C#N)nc34)C[C@H]2C)n1 (single isomer, unassigned) [Example 754]
IC50 [1, 7]: 0.058 µM
IC50 ([2]; DGKζ liposome (LIPGLO) assay): 0.23 µM
EC50 [3, 8]: 0.091 µM

CC[C@@H]1CN(c2cc(=O)n(C)c3ccc(C#N)nc23)[C@@H](C)CN1Cc1ccc(F)cc1F [Example 1077]
IC50 [1, 4]: 0.46 µM
IC50 ([2]; liposome (LIPGLO) assay): 0.32 µM
EC50 [3, 6]: 0.14 µM

C[C@@H]1CN(c2cc(=O)n(C)c3ccc(C#N)nc23)[C@@H](C)CN1C(c1ccc(F)cc1)c1cccc(C(F)F)n1 (single isomer, unassigned) [Example 697]
IC50 [1, 4]: 0.74 µM
IC50 ([2]; liposome (LIPGLO) assay): 0.059 µM
EC50 [3, 5]: 0.2 µM

C[C@@H]1CN(c2c(C#N)c(=O)n(C)c3ccc(C#N)nc23)CCN1Cc1ccccn1 [Example 990]
IC50 [1, 7]: 0.74 µM
IC50 ([2]; DGKζ liposome (LIPGLO) assay): 25 µM
EC50 [3, 9]: 20 µM

CC[C@H]1CN(C(c2ccc(F)cc2)c2ccon2)[C@H](CC)CN1c1cc(=O)n(C)c2ccc(C#N)nc12 (single isomer, unassigned) [Example 1073]
IC50 [1, 4]: 0.033 µM
IC50 ([2]; liposome (LIPGLO) assay): 0.12 µM
EC50 [3, 5]: 0.21 µM

C[C@@H]1CN(c2cc(=O)n(C)c3ccc(C#N)nc23)[C@@H](C)CN1C(COC(F)F)c1ccc(F)cc1 (single isomer, unassigned) [Example 1189]
IC50 [1, 4]: 0.81 µM
IC50 ([2]; liposome (LIPGLO) assay): 2.6 µM
EC50 [3, 6]: 1.2 µM

C[C@@H]1CN(c2cc(=O)n(C)c3ccc(C#N)nc23)[C@@H](C)CN1C(c1ccc(O)cc1F)C(F)(F)F (stereo partly drawn) [Example 625]
IC50 [1, 4]: 0.23 µM
IC50 ([2]; liposome (LIPGLO) assay): 2.4 µM
EC50 [3, 6]: 0.7 µM

CC[C@H]1CN(C(c2ccc(F)cc2)c2ccc(C#N)cc2)[C@H](CC)CN1c1cc(=O)n(C)c2ccc(C#N)nc12 (stereo partly drawn) [Example 1035]
IC50 [1, 4]: 0.37 µM
IC50 ([2]; liposome (LIPGLO) assay): 1.1 µM
EC50 [3, 6]: 0.29 µM

CC(c1ccc(Cl)cc1)N1C[C@H](C)N(c2c(C#N)c(=O)n(C)c3ccc(C#N)nc23)C[C@H]1C (single isomer, unassigned) [Example 792]
IC50 ([1]; DGKa LIPGLO IC50, DGKα liposome (LIPGLO) assay): 1.5 µM
IC50 ([2]; DGKζ liposome (LIPGLO) assay): 83 µM
EC50 [3, 8]: 21 µM

CCC(c1ccc(OC(F)(F)F)cc1F)N1C[C@H](C)N(c2cc(=O)n(C)c3ccc(C#N)nc23)C[C@H]1CC (single isomer, unassigned) [Example 421]
IC50 [1, 4]: 7.8 µM
IC50 ([2]; liposome (LIPGLO) assay): 1.8 µM
EC50 [3, 5]: 2.6 µM

C[C@@H]1CN(C(c2ccc(F)cc2)c2ccc(Cl)cc2)[C@@H](CO)CN1c1cc(=O)n(C)c2ccc(C#N)nc12 (single isomer, unassigned) [Example 1174]
IC50 [1, 4]: 11 µM
IC50 ([2]; liposome (LIPGLO) assay): 0.43 µM
EC50 [3, 6]: 1.4 µM

C[C@@H]1CN(c2cc(=O)n(C)c3ccc(C#N)nc23)[C@@H](C)CN1C(CO)c1ccc(C(F)(F)F)cn1 (single isomer, unassigned) [Example 1280]
IC50 [1, 4]: 1.3 µM
IC50 ([2]; liposome (LIPGLO) assay): 8.5 µM
EC50 [3, 6]: 9.9 µM

CC[C@@H]1CN(c2cc(=O)n(C)c3ccc(C#N)nc23)[C@@H](C)CN1C(c1ccc(F)cc1)c1ccnc(C)n1 (single isomer, unassigned) [Example 418]
IC50 [1, 4]: 1.5 µM
IC50 ([2]; liposome (LIPGLO) assay): 0.13 µM
EC50 [3, 5]: 0.28 µM
